# Measurements as given in PMC7069944, “Amino acid levels determine metabolism and CYP450 function of hepatocytes and hepatoma cell lines” (Nature Communications, 2020).
# Where “and” joins values, the source holds several entries; their conditions need not be identical. Equal values may be shown once.
# Legend:
# [1] = tested on: CYP3A4; experiment: CYP3A4-dependent BFC metabolization (fluorometric probe); format: in vitro ADME, human; settings: for BFC metabolisation: Figure 2B, replicate values; for BFC metabolisation (pmol/h/1000000cells): Figure 1D
# Protocol: Urea concentrations in the medium were analyzed after 24 h of culture using the QuantiChromTM Urea Assay Kit (BioAssay Systems DIUR-500) according to the manufacturer’s instructions. […] Metabolization was assessed for 1 h and 4 h incubation times. […] The albumin secretion rate was quantified using the human albumin ELISA quantification kit (Bethyl) according to instructions provided in the kit.
# [2] = target: CYP3A4 (Homo sapiens, UniProt P08684); settings: HepG2 AAGLY D32 and HC6X AAGLY D40, single exposure
# Protocol: Comparative CYP450 biotransformation studies were performed to assess functionality across a number of gold standard primary hepatocyte models. Cryopreserved PHHs were obtained from a single donor (Lonza, Breda, The Netherlands) or pooled donors (Thermo Scientific, Merelbeke, Belgium). Upon thawing, cell suspensions (0.5 million cells/ml) were prepared in WE medium using 24-well plates (0.5 ml/well) on an orbital shaker and metabolization activity was assessed following a 15 min equilibration period. Human Hepatopac® plates were obtained from Ascendance Biotechnology (Ascendance Biotechnology, Boston USA) and cultures were maintained following instructions of the provider. Spheroid cultures were generated in-house as essentially described by Bell et al.[42].
# Finally, the system was re-equilibrated at 60% (A)/40% (B) for an additional 0.7 min. Total run time was 3.8 min and 2 µl aliquots were injected onto the system for analysis.
# All data collection, processing, and analysis was performed with Analyst® software (v1.6.2. SCIEX).
# [3] = tested on: HepG2; experiment: Repeated-exposure DILI training compounds, resazurin conversion, HepG2
# Outline: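 PSC-derived cells differentiated in 384-well format, plus HepG2 seeded at 40,000 cells/well, received drugs after 8 h of attachment; untreated wells served as negative controls. Viability was measured by resazurin conversion and related to therapeutic Cmax values.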
# [4] = tested on: HC6X; experiment: Repeated-exposure DILI training compounds, resazurin conversion, HC6X
# Outline: (§1)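 Hepatotoxicity prediction used a miniaturized 384-well differentiation setup, scoring viability through resazurin reduction relative to Cmax.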
# [5] = tested on: HC3X; experiment: Repeated-exposure DILI training compounds, resazurin conversion, HC3X; settings: for Resazurin conversion, repeated exposure (Supplementary Figure 7D): HC3X AAGLY D40
# Outline: as §1
# [6] = tested on: HLC; experiment: Repeated-exposure DILI training compounds, resazurin conversion, HLC
# Outline: as §1
# CYP3A4 (Homo sapiens, UniProt P08684), sequence (P08684 whole entry): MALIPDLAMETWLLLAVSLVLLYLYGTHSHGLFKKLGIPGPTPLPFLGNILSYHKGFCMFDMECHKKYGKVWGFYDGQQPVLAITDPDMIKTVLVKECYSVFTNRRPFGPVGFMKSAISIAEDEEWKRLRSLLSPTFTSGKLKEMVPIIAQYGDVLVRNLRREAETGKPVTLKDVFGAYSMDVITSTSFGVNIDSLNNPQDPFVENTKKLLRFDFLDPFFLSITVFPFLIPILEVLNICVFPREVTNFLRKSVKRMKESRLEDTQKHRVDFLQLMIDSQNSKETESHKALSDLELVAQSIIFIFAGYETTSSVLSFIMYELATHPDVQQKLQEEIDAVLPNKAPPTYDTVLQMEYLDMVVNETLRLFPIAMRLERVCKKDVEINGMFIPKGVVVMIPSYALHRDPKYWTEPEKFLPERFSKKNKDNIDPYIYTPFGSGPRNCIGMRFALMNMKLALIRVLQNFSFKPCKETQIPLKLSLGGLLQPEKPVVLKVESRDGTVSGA
smiles,measurement,setting,value
"O=c1cc(C(F)(F)F)c2ccc(OCc3ccccc3)cc2o1 [BFC, 7-benzyloxy-4-trifluoromethylcoumarin]",relative BFC metabolsiation (compared to PHH 0h),[1]; HC3X AAGLY D20,13.5398 and 11.6179 and 10.8677
same,relative BFC metabolsiation (compared to PHH 0h),[1]; HC3X AAGLY D40,91.111 and 105.714 and 91
same,relative BFC metabolsiation (compared to PHH 0h),[1]; HC3X AAGLY D50,143.333 and 136.667 and 101.19
same,BFC metabolisation,[1]; HC3X D20,21.4494 pmol/h/1000000 cells and 25.0015 pmol/h/1000000 cells and 28.2425 pmol/h/1000000 cells
same,relative BFC metabolsiation (compared to PHH 0h),[1]; HC3X LDM D20,1.9009 and 2.216 and 2.503
same,relative BFC metabolsiation (compared to PHH 0h),[1]; HLC AAGLY D20,5.305 and 4.4 and 6.066
same,BFC metabolisation (pmol/h/1000000cells),[1]; HLC D20,11.7761 pmol/h/1000000cells and 11.0043 pmol/h/1000000cells and 15.6069 pmol/h/1000000cells
same,BFC metabolisation,[1]; HLC D20,11.7761 pmol/h/1000000 cells and 11.0043 pmol/h/1000000 cells and 15.6069 pmol/h/1000000 cells
same,relative BFC metabolsiation (compared to PHH 0h),[1]; HLC LDM D20,1.044 and 0.9752 and 0.9879
same,relative BFC metabolsiation (compared to PHH 0h),[1]; HLC LDM D40,4.464 and 8.743 and 7.646
same,relative BFC metabolsiation (compared to PHH 0h),[1]; PHH 0h,101.025 and 82.5131 and 116.462
same,BFC metabolisation (pmol/h/1000000cells),[1]; PHH 0h,1139.95 pmol/h/1000000cells and 931.065 pmol/h/1000000cells and 1314.14 pmol/h/1000000cells
same,BFC metabolisation,[1]; PHH 0h,1139.95 pmol/h/1000000 cells and 1031.07 pmol/h/1000000 cells and 1214.14 pmol/h/1000000 cells
same,relative BFC metabolsiation (compared to PHH 0h),[1]; PHH 12h,9.941 and 9.524
same,BFC metabolisation (pmol/h/1000000cells),[1]; PHH 12h,112.17 pmol/h/1000000cells and 107.467 pmol/h/1000000cells and 156.494 pmol/h/1000000cells
same,BFC metabolisation,[1]; PHH 12h,112.17 pmol/h/1000000 cells and 107.467 pmol/h/1000000 cells and 156.494 pmol/h/1000000 cells
Cc1ncc2n1-c1ccc(Cl)cc1C(c1ccccc1F)=NC2 [midazolam],midazolam biotransformation compared with PHHs,[2],equal to that of PHHs
Cc1ccc(C(=O)c2cc(O)c(O)c([N+](=O)[O-])c2)cc1 [tolcapone],"Resazurin conversion, repeated exposure (Supplementary Figure 7D)","[3]; HepG2 AAGLY D30, 10 uM",106.6 and 108.2 and 105.6 and 120.1 and 84.5 and 128.6
same,"Resazurin conversion, repeated exposure (Supplementary Figure 7D)","[3]; HepG2 AAGLY D30, 30 uM",144.6 and 128.4 and 104.2 and 136.2 and 93.4 and 133.6
same,"Resazurin conversion, repeated exposure (Supplementary Figure 7D)","[3]; HepG2 AAGLY D30, 50 uM",126.9 and 134.9 and 97.9 and 148.8 and 105 and 143.9
same,"Resazurin conversion, repeated exposure (Supplementary Figure 7D)","[3]; HepG2 AAGLY D30, 300 uM",44.5 and 61.6 and 62 and 66.8 and 60.8 and 73.6
same,"Resazurin conversion, repeated exposure (Supplementary Figure 7D)","[3]; HepG2 AAGLY D30, 500 uM",48.7 and 42.4 and 39.6 and 41.5 and 43.3 and 45.5
same,"Resazurin conversion, repeated exposure (Supplementary Figure 7D)","[3]; HepG2 AAGLY D30, 1000 uM",27.5 and 27.3 and 26.8 and 27.1 and 27.8
same,"Resazurin conversion, repeated exposure (Supplementary Figure 7D)","[3]; HepG2 AAGLY D30, 2000 uM",22.7 and 22.5 and 22.2 and 22.1 and 22.4
same,"Resazurin conversion, repeated exposure (Supplementary Figure 7D)","[3]; HepG2 AAGLY D30, 4000 uM",15.8 and 14.5 and 14.4 and 13.5 and 14.3
same,"Resazurin conversion, repeated exposure (Supplementary Figure 7D)","[3]; HepG2 CTL D7, 10 uM",87 and 84.9 and 85.9 and 110.7 and 87.4 and 87.2
same,"Resazurin conversion, repeated exposure (Supplementary Figure 7D)","[3]; HepG2 CTL D7, 30 uM",113.4 and 88.9 and 98.2 and 86.8 and 100.5 and 86.2
same,"Resazurin conversion, repeated exposure (Supplementary Figure 7D)","[3]; HepG2 CTL D7, 300 uM",8.3 and 8 and 7.5 and 8.8 and 8.1
same,"Resazurin conversion, repeated exposure (Supplementary Figure 7D)","[3]; HepG2 CTL D7, 500 uM",7.3 and 6.8 and 6.5 and 6.6 and 6.7
same,"Resazurin conversion, repeated exposure (Supplementary Figure 7D)","[3]; HepG2 CTL D7, 1000 uM",6.4 and 5.9 and 5.8 and 5.6
same,"Resazurin conversion, repeated exposure (Supplementary Figure 7D)","[3]; HepG2 CTL D7, 2000 uM",4.8 and 4.4 and 4
same,"Resazurin conversion, repeated exposure (Supplementary Figure 7D)","[3]; HepG2 CTL D7, 4000 uM",2.3 and 2.5 and 2.2 and 2.1 and 2 and 2.6
same,"Resazurin conversion, repeated exposure (Supplementary Figure 7D)","[4]; HC6X AAGLY D40, 10 uM",103.7 and 134.6 and 82 and 87 and 83.1 and 109.6
same,"Resazurin conversion, repeated exposure (Supplementary Figure 7D)","[4]; HC6X AAGLY D40, 30 uM",98.2 and 113.2 and 82.9 and 88.4 and 81.1 and 97.8
same,"Resazurin conversion, repeated exposure (Supplementary Figure 7D)","[4]; HC6X AAGLY D40, 100 uM",47.9 and 57 and 49.7 and 51.8 and 54.9 and 72.8
same,"Resazurin conversion, repeated exposure (Supplementary Figure 7D)","[4]; HC6X AAGLY D40, 300 uM",39.5 and 40.5 and 38.8 and 59.9 and 40.3 and 47.8
same,"Resazurin conversion, repeated exposure (Supplementary Figure 7D)","[4]; HC6X AAGLY D40, 500 uM",34.3 and 39.2 and 30.7 and 33.5 and 40.3 and 34.2
same,"Resazurin conversion, repeated exposure (Supplementary Figure 7D)","[4]; HC6X AAGLY D40, 1000 uM",31.1 and 26.7 and 26.3 and 27.6 and 26.5
same,"Resazurin conversion, repeated exposure (Supplementary Figure 7D)","[4]; HC6X AAGLY D40, 2000 uM",22.1 and 28.3 and 22.3 and 22.5 and 23 and 22.4
same,"Resazurin conversion, repeated exposure (Supplementary Figure 7D)","[4]; HC6X AAGLY D40, 4000 uM",17.8 and 17.3 and 16.6 and 16.3 and 16.4 and 16.8
same,"Resazurin conversion, repeated exposure (Supplementary Figure 7D)","[4]; HC6X AAGLY D40 Remove dox, 30 uM",108.6 and 121.2 and 103 and 112.9 and 119.8 and 93.5
same,"Resazurin conversion, repeated exposure (Supplementary Figure 7D)","[4]; HC6X AAGLY D40 Remove dox, 50 uM",77 and 153.8 and 144.7 and 105.2 and 81.9 and 88.4
same,"Resazurin conversion, repeated exposure (Supplementary Figure 7D)","[4]; HC6X AAGLY D40 Remove dox, 1000 uM",78.8 and 118 and 78.9 and 118.9 and 81.8 and 105.5
same,"Resazurin conversion, repeated exposure (Supplementary Figure 7D)",[5]; 10 uM,139.4 and 142.8 and 150.5 and 156.1 and 95.1 and 108.2
same,"Resazurin conversion, repeated exposure (Supplementary Figure 7D)",[5]; 30 uM,50.8 and 58.9 and 61.5 and 64.6 and 88.9 and 76.4
same,"Resazurin conversion, repeated exposure (Supplementary Figure 7D)",[5]; 300 uM,8.4 and 7.7 and 8 and 9.1 and 9.2
same,"Resazurin conversion, repeated exposure (Supplementary Figure 7D)",[5]; 500 uM,11.6 and 15.4 and 8.7 and 13.6 and 11.8 and 12.2
same,"Resazurin conversion, repeated exposure (Supplementary Figure 7D)",[5]; 1000 uM,6.7 and 6.6 and 6.4 and 6.5 and 7.5 and 9.6
same,"Resazurin conversion, repeated exposure (Supplementary Figure 7D)",[5]; 2000 uM,4.2 and 4.1 and 4.6
same,"Resazurin conversion, repeated exposure (Supplementary Figure 7D)",[5]; 4000 uM,3.1 and 3.3 and 3 and 3.2 and 3.4
same,IC50/Cmax,[5]; human,0.83
same,"Resazurin conversion, repeated exposure (Supplementary Figure 7D)","[6]; HLC AAGLY D40, 10 uM",89.6 and 98.4 and 93.9 and 112.4 and 126.3 and 99.4
same,"Resazurin conversion, repeated exposure (Supplementary Figure 7D)","[6]; HLC AAGLY D40, 100 uM",143.7 and 88 and 126.1 and 79.6 and 153.9 and 130.7
same,"Resazurin conversion, repeated exposure (Supplementary Figure 7D)","[6]; HLC AAGLY D40, 500 uM",86.2 and 108.3 and 80.7 and 126.4 and 91.4 and 111.1
same,"Resazurin conversion, repeated exposure (Supplementary Figure 7D)","[6]; HLC AAGLY D40, 1000 uM",80.1 and 96.8 and 72.2 and 70.6 and 94.2 and 112.4
same,"Resazurin conversion, repeated exposure (Supplementary Figure 7D)","[6]; HLC LDM D40, 10 uM",110.5 and 107.3 and 79 and 94.2 and 118.4 and 85.4
same,"Resazurin conversion, repeated exposure (Supplementary Figure 7D)","[6]; HLC LDM D40, 50 uM",117.3 and 84.9 and 88.5 and 107.2 and 94.9 and 106
same,"Resazurin conversion, repeated exposure (Supplementary Figure 7D)","[6]; HLC LDM D40, 100 uM",136.2 and 145.5 and 129 and 115.8 and 107.1 and 144.8
same,"Resazurin conversion, repeated exposure (Supplementary Figure 7D)","[6]; HLC LDM D40, 500 uM",60.4 and 57.9 and 62.5 and 68.7 and 54 and 73.8
same,"Resazurin conversion, repeated exposure (Supplementary Figure 7D)","[6]; HLC LDM D40, 4000 uM",25.6 and 16.8 and 16.1 and 16 and 13.5 and 19.7
